Experimental data taken from patent US7247627B2, “Salts and polymorphs of a pyrrole-substituted indolinone compound” (Pharmacia & Upjohn Company, priority 2003, dated 2007).

Assay: Chemical stability in temperature and humidity-controlled chamber (Example 2)
Type: physicochemical
Set-up: key to Appearance: U: unchanged
Description: Chemical stability was assessed for two different samples of 5-[(Z)-(5-fluoro-2-oxo-1,2-dihydro-3H-indol-3-ylidene)methyl]-N-[(2S)-2-hydroxy-3-morpholin-4-ylpropyl]-2,4-dimethyl-1H-pyrrole-3-carboxamide maleate salt, polymorph Form 1. Samples were maintained in a temperature and humidity-controlled chamber at 25° C. and 60% relative humidity (Tables 7 and 8) or at 40° C. and 75% relative humidity (Tables 9 and 10). At various time intervals, material was removed and tested for maleate counterion assay, impurities, water content and enantiomeric purity.
The maleate counterion assay was determined by ion exchange chromatography (IEC).
A suitable amount of the maleate salt is dissolved in water (Milli Q grade) and analyzed by IEC, and compared to calibration samples. Under these conditions, the peak due to maleic acid has a retention time of about 11 minutes. The amount of maleic acid in the sample is calculated as: % Assay=(Cs/W)×100 where Cs is the concentration of maleic acid found in the sample, and W is the theoretical sample concentration in the aqueous solution.
The amounts of impurities and degradation products were determined by HPLC, using a Perkin Elmer LC 200 system with a diode array detector. The analytical column was a Waters Xterra RP18, 5 μm, 250×4.6 mm, and the guard column was a Waters Xterra RP18, 5 μm, 20×3.9 mm. Mobile phase A was a mixture of 90% 0.05 M ammonium acetate buffer at pH 5.5 and 10% acetonitrile. Mobile phase B was a mixture of 10% 0.05 M ammonium acetate buffer at pH 5.5 and 90% acetonitrile.
Flow rate was 1 mL/min, injection volume 30 μL, room temperature, 435 nm detection. Under these conditions, the peak due to the maleate salt has a retention time of about 24 minutes. Impurities are characterized by their relative retention time (RRT). The impurity at RRT=0.26 is the E isomer. The other impurities were not characterized.
Enantiomeric purity was determined by HPLC, using a Chiralpak AD analytical column, 10 μm, 250×4.6 mm (Daicel Chemical Industries, Ltd.) using an oven temperature of 30° C., a mobile phase of 2-propanol/heptane/diethylamine (50/50/0.1), an isocratic elution mode, a flow rate of 0.5 mL/min, injection volume of 50 μL, detector wavelength of 265 nm, dilution solvent 2-propanol/heptane (50/50) and a sample concentration of 0.3 mg/mL. Under these conditions, the S isomer has a retention time of about 15.5 minutes, and the R isomer has a retention time of about 22 minutes.
Water content was determined according to USP 25, <921>, Method Ic.

[1] = 25° C. and 60% Relative Humidity, 1 mo.
[2] = 25° C. and 60% Relative Humidity, 3 mo.
[3] = 25° C. and 60% Relative Humidity, 6 mo.
[4] = 25° C. and 60% Relative Humidity, 9 mo.
[5] = 25° C. and 60% Relative Humidity, 12 mo.
[6] = 25° C. and 60% Relative Humidity, Initial
[7] = 40° C. and 75% Relative Humidity, 1 mo.
[8] = 40° C. and 75% Relative Humidity, 3 mo.
[9] = 40° C. and 75% Relative Humidity, 6 mo.
[10] = 40° C. and 75% Relative Humidity, Initial

## Cc1[nH]c(/C=C2\C(=O)Nc3ccc(F)cc32)c(C)c1C(=O)NC[C@H](O)CN1CCOCC1 [Sample A, 5-[(Z)-(5-fluoro-2-oxo-1,2-dihydro-3H-indol-3-ylidene)methyl]-N-[(2S)-2-hydroxy-3-morpholin-4-ylpropyl]-2,4-dimethyl-1H-pyrrole-3-carboxamide]
[1]
  Appearance: U^a
  Assay (% free base equivalent): 97.5 % free base equivalent
  Enantiomeric Purity (%): >99.9%
  Impurities (%) RRT 0.26: 0.28%
  Impurities (%) RRT 0.51: 0.41%
  Impurities (%) RRT 0.71: 0.06%
  Impurities (%) RRT 1.53: 0.11%
  Impurities (%) RRT 1.74: 0.10%
  Impurities (%) RRT 1.84: 0.13%
  Total Impurities (%): 1.09%
  Water Content (%): 0.53%
[2]
  Appearance: U^a
  Assay (% free base equivalent): 98.4 % free base equivalent
  Enantiomeric Purity (%): >99.9%
  Impurities (%) RRT 0.26: 0.05%
  Impurities (%) RRT 0.51: 0.40%
  Impurities (%) RRT 1.53: 0.12%
  Impurities (%) RRT 1.74: 0.09%
  Impurities (%) RRT 1.84: 0.12%
  Total Impurities (%): 0.78%
  Water Content (%): 0.68%
[3]
  Appearance: U^a
  Assay (% free base equivalent): 98.4 % free base equivalent
  Enantiomeric Purity (%): >99.9%
  Impurities (%) RRT 0.26: 0.07%
  Impurities (%) RRT 0.51: 0.42%
  Impurities (%) RRT 1.53: 0.12%
  Impurities (%) RRT 1.74: 0.09%
  Impurities (%) RRT 1.84: 0.12%
  Total Impurities (%): 0.82%
  Water Content (%): 0.46%
[4]
  Appearance: U^a
  Assay (% free base equivalent): 98.4 % free base equivalent
  Enantiomeric Purity (%): >99.9%
  Impurities (%) RRT 0.26: 0.15%
  Impurities (%) RRT 0.51: 0.36%
  Impurities (%) RRT 1.53: 0.12%
  Impurities (%) RRT 1.74: 0.07%
  Impurities (%) RRT 1.84: 0.10%
  Total Impurities (%): 0.77%
  Water Content (%): 0.42%
[5]
  Appearance: U^a
  Assay (% free base equivalent): 98.2 % free base equivalent
  Enantiomeric Purity (%): >99.9%
  Impurities (%) RRT 0.26: 0.06%
  Impurities (%) RRT 0.51: 0.33%
  Impurities (%) RRT 1.53: 0.13%
  Impurities (%) RRT 1.74: 0.07%
  Impurities (%) RRT 1.84: 0.11%
  Total Impurities (%): 0.70%
  Water Content (%): 0.74%
[6]
  Assay (% free base equivalent): 98.7 % free base equivalent
  Enantiomeric Purity (%): >99.9%
  Impurities (%) RRT 0.26: 0.09%
  Impurities (%) RRT 0.51: 0.40%
  Impurities (%) RRT 0.71: 0.05%
  Impurities (%) RRT 1.53: 0.10%
  Impurities (%) RRT 1.74: 0.09%
  Impurities (%) RRT 1.84: 0.10%
  Total Impurities (%): 0.83%
  Water Content (%): 0.55%
[7]
  Appearance: U^a
  Assay (% free base equivalent): 97.9 % free base equivalent
  Enantiomeric Purity (%): 100.00%
  Impurities (%) RRT 0.26: 0.29%
  Impurities (%) RRT 0.51: 0.39%
  Impurities (%) RRT 1.53: 0.11%
  Impurities (%) RRT 1.74: 0.08%
  Impurities (%) RRT 1.84: 0.13%
  Total Impurities (%): 1.00%
  Water Content (%): 0.57%
[8]
  Appearance: U^a
  Assay (% free base equivalent): 98.5 % free base equivalent
  Enantiomeric Purity (%): 100.00%
  Impurities (%) RRT 0.26: 0.05%
  Impurities (%) RRT 0.51: 0.40%
  Impurities (%) RRT 1.53: 0.14%
  Impurities (%) RRT 1.74: 0.08%
  Impurities (%) RRT 1.84: 0.12%
  Total Impurities (%): 0.80%
  Water Content (%): 0.69%
[9]
  Appearance: U^a
  Assay (% free base equivalent): 98.0 % free base equivalent
  Enantiomeric Purity (%): 100.00%
  Impurities (%) RRT 0.26: 0.07%
  Impurities (%) RRT 0.51: 0.40%
  Impurities (%) RRT 1.53: 0.15%
  Impurities (%) RRT 1.74: 0.07%
  Impurities (%) RRT 1.84: 0.12%
  Total Impurities (%): 0.81%
  Water Content (%): 0.42%
[10]
  Assay (% free base equivalent): 98.7 % free base equivalent
  Enantiomeric Purity (%): 100.00%
  Impurities (%) RRT 0.26: 0.09%
  Impurities (%) RRT 0.51: 0.40%
  Impurities (%) RRT 0.71: 0.05%
  Impurities (%) RRT 1.53: 0.10%
  Impurities (%) RRT 1.74: 0.09%
  Impurities (%) RRT 1.84: 0.10%
  Total Impurities (%): 0.83%
  Water Content (%): 0.55%

## Cc1[nH]c(/C=C2\C(=O)Nc3ccc(F)cc32)c(C)c1C(=O)NC[C@H](O)CN1CCOCC1 [Sample B, 5-[(Z)-(5-fluoro-2-oxo-1,2-dihydro-3H-indol-3-ylidene)methyl]-N-[(2S)-2-hydroxy-3-morpholin-4-ylpropyl]-2,4-dimethyl-1H-pyrrole-3-carboxamide]
[1]
  Appearance: U^a
  Assay (% free base equivalent): 98.2 % free base equivalent
  Impurities (%) RRT 0.26: 0.06%
  Impurities (%) RRT 0.51: 0.62%
  Impurities (%) RRT 0.71: 0.09%
  Impurities (%) RRT 1.53: 0.09%
  Impurities (%) RRT 1.74: 0.06%
  Impurities (%) RRT 1.84: 0.08%
  Total Impurities (%): 1.00%
  Water Content (%): 0.50%
[2]
  Appearance: U^a
  Assay (% free base equivalent): 98.2 % free base equivalent
  Impurities (%) RRT 0.26: 0.18%
  Impurities (%) RRT 0.51: 0.61%
  Impurities (%) RRT 0.71: 0.09%
  Impurities (%) RRT 1.53: 0.08%
  Impurities (%) RRT 1.74: 0.05%
  Impurities (%) RRT 1.84: 0.09%
  Total Impurities (%): 1.10%
  Water Content (%): 0.54%
[3]
  Appearance: U^a
  Assay (% free base equivalent): 97.7 % free base equivalent
  Impurities (%) RRT 0.26: 0.05%
  Impurities (%) RRT 0.51: 0.56%
  Impurities (%) RRT 0.71: 0.05%
  Impurities (%) RRT 1.53: 0.08%
  Impurities (%) RRT 1.74: 0.06%
  Impurities (%) RRT 1.84: 0.09%
  Total Impurities (%): 0.90%
  Water Content (%): 0.47%
[6]
  Assay (% free base equivalent): 97.8 % free base equivalent
  Enantiomeric Purity (%): >99.90%
  Impurities (%) RRT 0.26: 0.21%
  Impurities (%) RRT 0.51: 0.68%
  Impurities (%) RRT 0.71: 0.07%
  Impurities (%) RRT 1.53: 0.11%
  Impurities (%) RRT 1.74: 0.07%
  Impurities (%) RRT 1.84: 0.10%
  Total Impurities (%): 1.24%
  Water Content (%): 0.45%
[7]
  Appearance: U^a
  Assay (% free base equivalent): 98.2 % free base equivalent
  Impurities (%) RRT 0.26: 0.13%
  Impurities (%) RRT 0.51: 0.61%
  Impurities (%) RRT 0.71: 0.08%
  Impurities (%) RRT 1.53: 0.10%
  Impurities (%) RRT 1.74: 0.06%
  Impurities (%) RRT 1.84: 0.08%
  Total Impurities (%): 1.06%
  Water Content (%): 0.49%
[8]
  Appearance: U^a
  Assay (% free base equivalent): 97.2 % free base equivalent
  Impurities (%) RRT 0.26: 0.18%
  Impurities (%) RRT 0.51: 0.58%
  Impurities (%) RRT 0.71: 0.08%
  Impurities (%) RRT 1.53: 0.09%
  Impurities (%) RRT 1.74: 0.05%
  Impurities (%) RRT 1.84: 0.09%
  Total Impurities (%): 1.06%
  Water Content (%): 0.49%
[9]
  Appearance: U^a
  Assay (% free base equivalent): 97.5 % free base equivalent
  Enantiomeric Purity (%): >99.9%
  Impurities (%) RRT 0.26: 0.05%
  Impurities (%) RRT 0.51: 0.54%
  Impurities (%) RRT 1.53: 0.10%
  Impurities (%) RRT 1.74: 0.05%
  Impurities (%) RRT 1.84: 0.09%
  Total Impurities (%): 0.83%
  Water Content (%): 0.47%
[10]
  Assay (% free base equivalent): 97.8 % free base equivalent
  Enantiomeric Purity (%): >99.95%
  Impurities (%) RRT 0.26: 0.21%
  Impurities (%) RRT 0.51: 0.68%
  Impurities (%) RRT 0.71: 0.07%
  Impurities (%) RRT 1.53: 0.11%
  Impurities (%) RRT 1.74: 0.07%
  Impurities (%) RRT 1.84: 0.10%
  Total Impurities (%): 1.24%
  Water Content (%): 0.45%
